Patent US10329304B2, “Compounds and methods for inhibition of hedgehog signaling and phosphodiesterase” (Vanderbilt University, priority 2014, dated 2019)
Entries after “also recorded” stand apart in the source; their conditions may differ. Read-outs that look alike come from different tables or passages of the source.

Tests used:
IFT88 localization = experiment: IFT88 immunostaining in NIH3T3 cells; type: cell-based; conditions: EGM 5 μM, ciliobrevin D 100 μM
Description: To investigate whether the disruption of the cilium-to-nucleus trafficking of Gli2 by eggmanone was due to a general defect in the retrograde transport within the primary cilium, we compared the effect of the cytoplasmic dynein motor inhibitor ciliobrevin D with the effect of eggmanone on the intraflagellar transport protein 88 (IFT88) trafficking^19. […] Thus, the effects of eggmanone on Gli2 trafficking is specific, rather than an indirect consequence of a global defect in ciliary transport machinery.

Gli1 transcription = experiment: Sufu−/− mouse embryonic fibroblasts qRT-PCR; type: cell-based; conditions: Gli1 and Ptch1
Description: In light of EGM1's ability to halt Hh transcriptional activity at a node downstream of the negative regulator Sufu, and thus also downstream of Smo, we sought to confirm mode of action retention with our most promising analogs. Therefore, we employed Sufu−/− mouse embryonic fibroblasts (MEF) that display constitutively active transcription of Hh target genes Gli1 and Ptch1 and monitored the ability of our optimized analogs to repress signaling via quantitative reverse transcription-PCR (qRT-PCR). […] We then evaluated improved analogs from multiple structural classes including those from Table 1 with cyclohexylthiophene cores as well as from Table 13 with structurally distinct core modifications.
Sufu^−/− cells were seeded into 12-well plates at a density of 100,000 cells/well in D10 FBS and incubated for 24 hours. Small molecule solutions were prepared by adding the desired amount of compound from 10 mM DMSO stock to D0.5 FBS. Negative control was prepared by adding an equi-volume amount of DMSO to D0.5 FBS as compared to small molecule treated conditions. Cell plating medium was aspirated and replaced with 1 mL of prepared small molecule-containing media, and plates were incubated for 24 hours before proceeding to RNA isolation.
Cells were washed 1× with 1× phosphate-buffered saline (PBS) then RNA was isolated using the Qiagen RNeasy Mini Kit (Qiagen, Germantown, Md., USA) according to the manufacturer's protocol, eluting RNA from the spin column with 30 μL of RNase-free water. RNA was placed on ice and immediately subjected to reverse transcription. Remaining RNA was stored at −80° C.
Reverse transcription polymerase chain reaction (RT-PCR) was performed with the Applied Biosystems High Capacity cDNA Reverse Transcription Kit (ThermoFisher Scientific, Waltham, Mass., USA) using an Eppendorf MasterCycler. Each 20 μL reaction contained 0.5 μg of total RNA, 2 μL of 10×RT Buffer, 0.8 μL of 25×dNTP Mix (100 mM), 2 μL of 10×RT Random Primers, 1 μL of MultiScribe® Reverse Transcriptase (50 U/μL), 1 μL of Recombinant RNasin® Ribonuclease Inhibitor (40 U/μL) (Promega, Madison, Wis., USA), and nuclease-free water. Reverse transcription was performed with the following program: 25° C. for 10 minutes, 37° C. for 120 minutes, and 85° C. for 5 minutes. The cDNA was subjected to quantitative real-time PCR (Q-PCR) or stored at −20° C.
Quantitative real-time PCR was performed on an Applied Biosystems 7900 HT Fast Real Time PCR System in 384-well format. Each cDNA sample was assayed in triplicate with both probe of interest and control probe. Master mixes for each probe were prepared corresponding to 10 μL of Applied Biosystems TaqMan Universal PCR Master Mix (ThermoFisher Scientific, Waltham, Mass., USA), 1 μL of primer, and nuclease-free water corresponding to a volume providing 20 μL reactions when loading an average of 50 ng of cDNA. Quantitative real-time PCR was run with the following thermal cycling protocol: 50° C. for 2 min., 95° C. for 10 min., and 40 cycles of 95° C. for 15 seconds, 60° C. for 1 min., then fluorescence reading. The following FAM probes were purchased from Life Technologies (Carlsbad, Calif., USA): mouse GAPDH, Mm99999915_g1; mouse Gli1, Mm00494646_g1; mouse Ptch1, Mm01306905_m1.
Quantitative real-time PCR data for Hh signaling inhibition was quantitated using the ΔΔCt method. Control probe values were subtracted from probe of interest values to arrive at the ΔCt value. The ΔCt value was transformed by 2-^ΔCt to arrive at the ΔΔCt value. All ΔΔCt values were divided by the average negative control ΔΔCt value to provide percent Hh signaling activity. Percent inhibition values were derived by calculating the inverse of percent activity. Data is reported as mean±standard error of the mean (SEM), representing at least two biological replicates, each quantitated in triplicate.

[1] = Lipophilic efficiency (LipE = pEC50 − cLogP) and cLogP
Procedure, shortened: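 pEC50 came from TM3-Gli-Luc Gli-responsive luciferase reporter cells stimulated with 20 nM SAG, with non-specific cytotoxicity monitored in parallel. LipE was calculated by subtracting cLogP from pEC50.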

TM3-Gli-Luc cells = experiment: TM3-Gli-Luc cell viability (Cell Titer Glo, LD50); type: cell-based
Description: On the day of cell plating, 96-well plates were coated with 50 μL/well of sterile 0.1% gelatin for 5 minutes then aspirated and replaced with 50 μL/well of TM3 Culture Medium. TM3-Gli-Luc cells were seeded at a density of 5,000 cells/well in TM3 Culture Medium and incubated for 24 hours. A master mix of 20 nM SAG in TM3Luc Medium was prepared, and small molecule solutions were prepared by adding the desired amount of compound from 10 mM DMSO stock to TM3Luc Medium containing 20 nM SAG. Negative control was prepared by adding an equi-volume amount of DMSO as compared to small molecule treated conditions to TM3Luc Medium not containing SAG. Cell plating medium was aspirated and replaced with 100 μL/well of prepared small molecule-containing media, and plates were incubated for 48 hours before proceeding to luciferase activity and cell viability reading.
TM3Luc Medium from compound treated plates was aspirated and replaced with 82 μL/well of Glo Lysis Buffer (Promega, Madison, Wis., USA), and plates were shaken at 300 rpm and room temperature for 12 minutes. Lysate was split between two white 96-well plates, 45 μL/well and 25 μL/well for luciferase reading and cell viability respectively. For luciferase activity monitoring, 45 μL/well of Steady Glo (Promega, Madison, Wis., USA) was added to 45 μL/well of cell lysate, incubated at room temperature for 5 minutes, then luminescence was measured on a Turner Biosystems Modulus Microplate Reader (Sunnyvale, Calif., USA) with an integration time of 0.5 seconds. For cell viability measurement, 25 μL/well of Cell Titer Glo (Promega, Madison, Wis., USA) (prepared by 1:10 dilution with Glo Lysis Buffer) was added to 25 μL/well of cell lysate, incubated at room temperature for 5 minutes, then luminescence was measured as above.
All raw data was divided by the average of positive control cell titer data to arrive at percent cells remaining compared to positive control. […] At least two independent assays tested on separate days were averaged to provide LD50±standard error of the mean.

[2] = system: Hedgehog signaling (TM3-Gli-Luc); experiment: TM3-Gli-Luc luciferase reporter assay stimulated with 20 nM SAG; type: cell-based
Procedure, shortened: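 Luciferase read-out divided by CellTiter-Glo viability, minus DMSO/no-SAG baseline, expressed relative to 20 nM SAG alone. Cells exposed to compound with SAG for 48 h at 37 °C in 2.5% FBS DMEM/F12 on gelatin. EC50 ±SEM from at least two separate-day runs.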

[3] = molecular target: T1, Smo cyclopamine (Cyc) binding site (Homo sapiens, UniProt Q99835); experiment: BODIPY-cyclopamine competition in HEK-293T cells overexpressing Smo; conditions: KAAD-Cyc 200 nM; analogs at 10- to 20-fold their EC50s
T1 construct: expressed in transfected cells; host or cells: HEK-293T
Description: Thus, HEK-293T cells overexpressing Smo were concurrently treated with 5 nM BODIPY-Cyc and molecules of interest.

consensus PDE4D sequence = consensus PDE4D sequence (Homo sapiens, UniProt Q08499); experiment: PDE4D inhibition (consensus PDE4D sequence); type: biochemical
Description: First, the contribution of PDE4 was revisited as a potential explanation for the observed mechanistic drift.

PDE4D = PDE4D (Homo sapiens, UniProt Q08499); experiment: PDE4 inhibition assay (PDE4D IC50); type: biochemical; conditions: mean ± SEM, normalized to DMSO; read-out: PDE4D IC50
Procedure, shortened: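 Duplicate 60 min room-temperature reactions hold 100 nM FAM-cAMP substrate, PDE4D enzyme and test compound at 1% final DMSO in pH7.4 Tris buffer. Product FAM-AMP captured by bead binding agent (60 min), with fluorescence read at excitation 485, emission 528 nm.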

[4] = TM3-Gli-Luc reporter line stimulated with 20 nM SAG, mean ± SEM, Table 14, read-out: TM3-Gli-Luc EC50
[5] = calculated as pEC50 - cLogP (Molinspiration Cheminformatics), Table 13
[6] = TM3-Gli-Luc reporter line stimulated with 20 nM SAG, mean ± SEM, Table 13, read-out: TM3-Gli-Luc EC50

T1 sequence (Q99835 28-787): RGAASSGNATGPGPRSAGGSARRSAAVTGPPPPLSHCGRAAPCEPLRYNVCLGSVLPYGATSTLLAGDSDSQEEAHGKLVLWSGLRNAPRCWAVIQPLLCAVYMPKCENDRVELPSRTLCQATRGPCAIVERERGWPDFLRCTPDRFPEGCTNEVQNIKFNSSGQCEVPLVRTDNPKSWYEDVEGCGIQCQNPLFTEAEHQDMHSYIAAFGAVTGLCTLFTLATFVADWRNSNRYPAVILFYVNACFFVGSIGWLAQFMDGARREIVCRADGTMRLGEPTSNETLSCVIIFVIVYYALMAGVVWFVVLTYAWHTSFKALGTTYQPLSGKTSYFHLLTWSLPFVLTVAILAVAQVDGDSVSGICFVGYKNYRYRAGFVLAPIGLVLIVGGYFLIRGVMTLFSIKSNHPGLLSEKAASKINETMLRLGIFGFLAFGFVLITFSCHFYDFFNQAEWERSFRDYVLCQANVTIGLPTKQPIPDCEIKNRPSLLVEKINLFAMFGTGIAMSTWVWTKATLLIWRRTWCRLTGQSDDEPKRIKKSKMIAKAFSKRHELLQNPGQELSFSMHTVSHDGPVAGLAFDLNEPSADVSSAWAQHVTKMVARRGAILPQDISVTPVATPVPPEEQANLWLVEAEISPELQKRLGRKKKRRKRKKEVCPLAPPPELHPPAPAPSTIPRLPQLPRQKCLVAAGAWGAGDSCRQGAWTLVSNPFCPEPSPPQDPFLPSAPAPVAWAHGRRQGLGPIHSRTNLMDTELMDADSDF
consensus PDE4D sequence, sequence (Q08499 whole entry): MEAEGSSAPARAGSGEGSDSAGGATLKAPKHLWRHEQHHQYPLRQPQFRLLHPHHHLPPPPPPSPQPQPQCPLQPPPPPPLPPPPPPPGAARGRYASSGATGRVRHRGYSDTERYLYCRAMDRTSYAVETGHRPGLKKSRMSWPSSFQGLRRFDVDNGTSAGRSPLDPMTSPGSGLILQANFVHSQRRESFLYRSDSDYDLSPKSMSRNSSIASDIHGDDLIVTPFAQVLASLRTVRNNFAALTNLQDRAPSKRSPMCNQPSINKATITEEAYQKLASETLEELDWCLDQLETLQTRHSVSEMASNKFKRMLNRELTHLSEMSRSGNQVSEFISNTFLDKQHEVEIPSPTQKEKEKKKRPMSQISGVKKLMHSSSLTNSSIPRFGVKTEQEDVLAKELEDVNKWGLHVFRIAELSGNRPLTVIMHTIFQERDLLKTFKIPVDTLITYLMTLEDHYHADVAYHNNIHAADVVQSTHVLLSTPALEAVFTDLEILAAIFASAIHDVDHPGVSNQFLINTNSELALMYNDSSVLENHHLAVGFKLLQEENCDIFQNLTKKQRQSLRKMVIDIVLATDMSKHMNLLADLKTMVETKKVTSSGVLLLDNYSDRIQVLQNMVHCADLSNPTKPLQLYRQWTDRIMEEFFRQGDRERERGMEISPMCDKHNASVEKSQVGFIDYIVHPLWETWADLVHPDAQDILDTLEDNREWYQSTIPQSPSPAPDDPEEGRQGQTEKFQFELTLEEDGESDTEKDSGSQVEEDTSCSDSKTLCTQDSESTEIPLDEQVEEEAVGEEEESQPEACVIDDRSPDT
PDE4D, sequence (Q08499 whole entry): as above

With N#CC(=C(O)c1ccc(Cl)cc1Cl)c1nc2cc(Cl)ccc2c(=O)[nH]1 [Ciliobrevin D, reference compound] as the compound, how does the “IFT88 localization in the cilium” value (IFT88 localization) read?
Its value is “perturbed the localization of IFT88 in the cilium”.

And the “IFT88 localization in the cilium” value (IFT88 localization; listed as ciliobrevin D)?
The value was “severely disrupted the IFT88 localization in the cilium”.

Which “Transcriptional inhibition in the Sufu−/− cell line, in words” value (from here on “Transcriptional inhibition”) (Gli1 transcription) does the source give for C=C(C)Cn1c(SCC(=O)N2CCCCC2C)nc2sc3c(c2c1=O)CCCC3 (stereo not shown) [Formula 9m] here?
Its value is “general ability to inhibit transcriptional activity”.

What about the LipE ([1]; Calculated as pEC50 - cLogP, Molinspiration Cheminformatics) of the same compound?
The LipE was 0.94.

And the LipE ([1]; pEC50 - cLogP, Table 14)?
The LipE was 0.94.

And the LD50 (TM3-Gli-Luc cells)?
The LD50 was 16.7 µM.

What about the “TM3-Gli-Luc LD50” value (TM3-Gli-Luc cells; mean ± standard error of the mean) of the same compound?
The value was 16.7 ± 0.25 µM.

What about the “reduction in potency versus EGM1” value [2] of the same compound?
Its value is ~2 fold.

And the EC50 ([2]; 20 nM SAG, mean ± standard error of the mean, read-out: TM3-Gli-Luc EC50)?
The EC50 was 2320 ± 730 nM.

What about the EC50 [2, 4] of the same compound?
The EC50 was 2320 ± 730 nM.

With O=C(CSc1nc2ccccc2c(=O)n1C1CC1)c1cccs1 [Formula 14b] as the compound, how does the “Transcriptional inhibition” value (Gli1 transcription) read?
The value was “lack of Sufu−/− transcriptional inhibition”.

And the “Displacement of BODIPY-cyclopamine (5 nM) from Smo” value [3]?
Its value is “do not displace the binding of BODIPY-cyclopamine; also recorded: failed to compete for the Smo binding site”.

And the LipE [1, 5]?
The LipE was 2.78.

What about the LipE ([1]; pEC50 - cLogP, Table 14) of the same compound?
Its LipE is 2.78.

And the “Hh inhibitory activity / potency in words” value ([2]; 20 nM SAG)?
Its value is “potency improvements over EGM1”.

What about the EC50 ([2]; 20 nM SAG, read-out: EC50) of the same compound?
Its EC50 is 685 nM.

What about the EC50 [2, 6] of the same compound?
Its EC50 is 685 ± 20 nM.

And the EC50 [2, 4]?
Its EC50 is 685 ± 20 nM.

For O=C(CSc1nc2sccc2c(=O)n1C1CC1)c1cccs1 [Formula 19b], which “Transcriptional inhibition” value (Gli1 transcription) is on record?
Its value is “lack of Sufu−/− transcriptional inhibition”.

What about the “Displacement of BODIPY-cyclopamine (5 nM) from Smo” value [3] of the same compound?
Its value is “do not displace the binding of BODIPY-cyclopamine; also recorded: failed to compete for the Smo binding site”.

What about the LipE [1, 5] of the same compound?
Its LipE is 2.89.

What about the LipE ([1]; pEC50 - cLogP, Table 14) of the same compound?
The LipE was 2.89.

And the EC50 [2, 6]?
Its EC50 is 933 ± 100 nM.

And the EC50 [2, 4]?
Its EC50 is 933 ± 100 nM.

What does the source list for O=C(CSc1nc2sccc2c(=O)n1C1CC1)c1ccccc1 [Formula 19c]?
Transcriptional inhibition in the Sufu−/− cell line, in words (Gli1 transcription): lack of Sufu−/− transcriptional inhibition; Displacement of BODIPY-cyclopamine (5 nM) from Smo [3]: do not displace the binding of BODIPY-cyclopamine; also recorded: failed to compete for the Smo binding site; LipE [1, 5]: 3.84; LipE ([1]; pEC50 - cLogP, Table 14): 3.84; Non-specific cellular toxicity (TM3-Gli-Luc cells): no non-specific cellular toxicity; PDE4D inhibition in words (consensus PDE4D sequence): only modest ICs against PDE4D; EC50 [2, 6]: 82 ± 10 nM; EC50 [2, 4]: 82 ± 10 nM

What does the source list for O=c1c2ccsc2nc(SCC(O)c2ccccc2)n1C1CC1 (stereo not shown) [Formula 20a]?
Transcriptional inhibition in the Sufu−/− cell line, in words (Gli1 transcription): lack of Sufu−/− transcriptional inhibition; Displacement of BODIPY-cyclopamine (5 nM) from Smo [3]: do not displace the binding of BODIPY-cyclopamine; also recorded: failed to compete for the Smo binding site; LipE ([1]; pEC50 - cLogP, Table 14): 3.41; IC50 (PDE4D): 6070 ± 1500 nM; PDE4D inhibition in words (consensus PDE4D sequence): only modest ICs against PDE4D
